pIC50, pKi: −log10 of the molar value.
How the values were obtained:
[1] = target: Cathepsin D (Homo sapiens, UniProt P07339); experiment: Inhibition against human cathepsin D was determined
[2] = tested on: H9; experiment: Inhibitory activity was evaluated against HIV-1 in H9 and Sup T1 cell lines as assessed by syncytium formation and reverse transcriptase assay; type: functional, cell-based; settings: Homo sapiens
[3] = target: Human immunodeficiency virus type 1 protease (Human immunodeficiency virus 1) (UniProt Q72874); experiment: Bimolecular rate constant for the formation of HIV-1 protease complex was evaluated
[4] = target: Human immunodeficiency virus type 1 protease (Human immunodeficiency virus 1, UniProt Q72874); experiment: Compound was tested for its inhibitory activity against HIV-1 protease
[5] = target: T1, Renin (Homo sapiens, UniProt P00797); experiment: Inhibition against human renin was determined; IA means inactive
T1 sequence (P00797 whole entry): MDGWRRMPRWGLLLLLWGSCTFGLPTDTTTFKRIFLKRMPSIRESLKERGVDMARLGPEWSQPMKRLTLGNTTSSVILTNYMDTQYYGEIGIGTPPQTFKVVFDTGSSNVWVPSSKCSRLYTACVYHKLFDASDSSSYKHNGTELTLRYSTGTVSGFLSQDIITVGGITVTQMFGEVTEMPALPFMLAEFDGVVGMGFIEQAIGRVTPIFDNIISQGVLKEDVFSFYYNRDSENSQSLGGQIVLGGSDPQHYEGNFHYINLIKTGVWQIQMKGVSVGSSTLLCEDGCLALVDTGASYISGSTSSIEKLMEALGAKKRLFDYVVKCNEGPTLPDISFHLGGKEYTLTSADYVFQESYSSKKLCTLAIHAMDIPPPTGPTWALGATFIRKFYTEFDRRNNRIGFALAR

[6] = tested on: H9; experiment: Inhibitory activity was evaluated against HIV-1 protease by using reverse transcription assay; type: functional, cell-based; settings: Homo sapiens

Chain of Cathepsin D (P07339 65-162 limits assumed): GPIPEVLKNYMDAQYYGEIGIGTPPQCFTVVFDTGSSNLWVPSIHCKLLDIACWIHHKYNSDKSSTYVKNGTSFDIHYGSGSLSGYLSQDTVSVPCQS
Chain of Cathepsin D (P07339 169-412 limits assumed): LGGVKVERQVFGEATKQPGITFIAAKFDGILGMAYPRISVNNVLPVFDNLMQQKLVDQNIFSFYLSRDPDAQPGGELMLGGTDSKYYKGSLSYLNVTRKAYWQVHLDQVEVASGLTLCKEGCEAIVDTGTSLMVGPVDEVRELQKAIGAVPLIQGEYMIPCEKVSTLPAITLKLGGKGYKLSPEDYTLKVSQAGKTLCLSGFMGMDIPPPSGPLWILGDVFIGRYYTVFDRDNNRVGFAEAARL

SMILES | pIC50 [1] | pIC50 [2] | K inact/Ki [3] [M⁻¹ min⁻¹] | pKi [4] | IC50 [5] | pIC50 [6]
CCN(C(C)C)S(=O)(=O)CC[C@@H]1O[C@@H]1[C@H](Cc1ccccc1)NC(=O)[C@@H](NC(=O)c1ccc2ccccc2n1)C(C)(C)S(C)(=O)=O | 5.09 | 8.18 | 2.9e+07 | 8.15 | Not Active | 
CCN(c1ccccc1)S(=O)(=O)CC[C@@H]1O[C@@H]1[C@H](Cc1ccccc1)NC(=O)[C@@H](NC(=O)OCc1ccccc1)C(C)(C)S(C)(=O)=O |  | 7.86 | 4.3e+07 | 8.34 |  | 
CCN(c1ccccc1)S(=O)(=O)CC[C@@H]1O[C@@H]1[C@H](Cc1ccccc1)NC(=O)[C@@H](NC(=O)c1ccc2ccccc2n1)C(C)(C)S(C)(=O)=O |  | 7.97 | 3.9e+07 | 8.30 |  | 
CC(C)C(NC(=O)C[C@@H]1O[C@@H]1[C@H](Cc1ccccc1)NC(=O)[C@H](CC(N)=O)NC(=O)c1ccc2ccccc2n1)C(C)C |  | 7.70 | 2e+08 |  |  | 
CCN(C(C)C)S(=O)(=O)CC[C@@H]1O[C@@H]1[C@H](Cc1ccccc1)NC(=O)[C@@H](NC(=O)OCc1ccccc1)C(C)(C)S(C)(=O)=O |  |  | 9.8e+07 | 9.10 |  | 7.96
CCN(CC(C)C)S(=O)(=O)CC[C@@H]1O[C@@H]1[C@H](Cc1ccccc1)NC(=O)[C@@H](NC(=O)OCc1ccccc1)C(C)(C)S(C)(=O)=O |  | 7.97 | 6.9e+07 | 8.54 |  | 
CC(C)(C)NS(=O)(=O)CC[C@@H]1O[C@@H]1[C@H](Cc1ccccc1)NC(=O)C(CC(N)=O)NC(=O)c1ccc2ccccc2n1 (stereo partly specified) |  | 7.52 | 1.5e+07 | 7.90 |  | 
CC(C)(C)NS(=O)(=O)CC[C@@H]1O[C@@H]1[C@H](Cc1ccccc1)NC(=O)[C@@H](NC(=O)OCc1ccccc1)C(C)(C)S(C)(=O)=O |  | 7.69 | 8e+07 | 9.15 |  | 
CC(C)N(C(=O)c1ccccc1)S(=O)(=O)CC[C@@H]1O[C@@H]1[C@H](Cc1ccccc1)NC(=O)[C@@H](NC(=O)OCc1ccccc1)C(C)(C)S(C)(=O)=O |  | 7.82 | 5.5e+07 | 8.44 |  | 
CCN(C(C)C)S(=O)(=O)CC[C@@H]1O[C@@H]1[C@H](Cc1ccccc1)NC(=O)[C@@H](NC(=O)c1cccs1)C(C)(C)S(C)(=O)=O |  | 7.74 | 6.3e+07 | 8.51 |  | 

From ChEMBL document CHEMBL1130577, “Synthesis of irreversible HIV-1 protease inhibitors containing sulfonamide and sulfone as amide bond isosteres” (Bioorg Med Chem Lett, 1997)
